Source: patent publication US9586931B2 (Merck Sharp & Dohme Corp., priority 2012, dated 2017)

Target: T1, recombinant human GST-Syk (Homo sapiens, UniProt P43405)
T1 construct: purchased Carna Biosciences 08-176
Assay: Homogeneous Time-Resolved Fluorescence (HTRF) assay for the recombinant human Syk enzyme
Format: biochemical
Conditions: recombinant human GST-Syk 5 pM, ATP 25 μM, 10-dose titration 10 μM to 0.508 nM; read-out: rhSYK Activity IC50
Protocol: Syk inhibition may be determined using the following assay protocol:
Homogeneous Time-Resolved Fluorescence (HTRF) assay for the recombinant human Syk enzyme: A recombinant GST-hSyk fusion protein was used to measure potency of compounds to inhibit human Syk activity. […] Final volume of the reaction was 10 μL. Phosphorylation of the peptide was allowed to proceed for 45 minutes at room temperature. To quench the reaction and detect the phosphorylated product, 2 nM of a Europium-anti-phosphotyrosine antibody (Perkin Elmer #AD0161) and 70 nM SA-APC (Perkin-Elmer #CR130-100) were added together in 15 mM Tris pH 7.5, 40 mM EDTA, 0.01% tween 20. Final volume of the quenching solution was 10 μL. The resulting HTRF signal was measured after 30 minutes on an EnVision (Perkin-Elmer) reader using a time-resolved fluorescence protocol.

Row | Compound | IC50 [nM]
1 | Cc1cc(Nc2cc(C(F)(F)F)ccn2)nc(-c2cn(CC3(O)CCC(C(=O)O)C(C)(C)C3)nn2)c1 (centres unmarked) [Example 3.5, 4-hydroxy-2,2-dimethyl-4-{[4-(4-methyl-6-{[4-(trifluoromethyl)pyridin-2-yl]amino}pyridin-2-yl)-1H-1,2,3-triazol-1-yl]methyl}cyclohexanecarboxylic acid] | 70.4
2 | Cc1cc(Nc2nccc(C(F)(F)F)n2)cc(-c2cn(CC3(O)CCC(C(=O)O)C(C)(C)C3)nn2)c1 (centres unmarked) [Example 3.4, 4-hydroxy-2,2-dimethyl-4-{[4-(3-methyl-5-{[4-(trifluoromethyl)pyrimidin-2-yl]amino}phenyl)-1H-1,2,3-triazol-1-yl]methyl}cyclohexanecarboxylic acid] | 81.4
3 | COC(=O)c1ccc(C(O)Cn2cc(-c3cc(C)cc(Nc4cc(C(F)(F)F)ccn4)n3)nn2)cc1 (centres unmarked) [Example 4.17, methyl 4-{1-hydroxy-2-[4-(4-methyl-6-{[4-(trifluoromethyl)pyridin-2-yl]amino}pyridin-2-yl)-1H-1,2,3-triazol-1-yl]ethyl}benzoate] | 26.6
4 | Cc1cc(Nc2cc(C(F)(F)F)ccn2)nc(-c2cn(C/C=C/C(N)=O)nn2)c1 [Example 1.26, (2E)-4-[4-(4-methyl-6-{[4-(trifluoromethyl)pyridin-2-yl]amino}pyridin-2-yl)-1H-1,2,3-triazol-1-yl]but-2-enamide] | 1110
5 | COC(=O)C1CCC(O)(Cn2cc(-c3cc(C)cc(Nc4cc(C(F)(F)F)ccn4)n3)nn2)CC1(C)C (centres unmarked) [Example 4.12, methyl 4-hydroxy-2,2-dimethyl-4-{[4-(4-methyl-6-{[4-(trifluoromethyl)pyridin-2-yl]amino}pyridin-2-yl)-1H-1,2,3-triazol-1-yl]methyl}cyclohexanecarboxylate] | 145
6 | Cc1cc(Nc2cc(C(F)(F)F)ccn2)nc(-c2cn(C(C)C(=O)N3CCc4cc(O)c(O)cc4C(c4ccccc4)C3)nn2)c1 (centres unmarked) [Example 1.54, 3-{2-[4-(4-methyl-6-{[4-(trifluoromethyl)pyridin-2-yl]amino}pyridin-2-yl)-1H-1,2,3-triazol-1-yl]propanoyl}-1-phenyl-2,3,4,5-tetrahydro-1H-3-benzazepine-7,8-diol] | 134
7 | Cc1cc(Nc2cc(OC3CCC3)ccn2)nc(-c2cn(C(C)c3ccc(C(=O)O)cc3)nn2)c1 (centres unmarked) [Example 2.8, 4-{1-[4-(6-{[4-(cyclobutyloxy)pyridin-2-yl]amino}-4-methylpyridin-2-yl)-1H-1,2,3-triazol-1-yl]ethyl}benzoic acid] | 5050
8 | Cc1cc(Nc2nccc(C(F)(F)F)n2)cc(-c2cn(C3COCC3O)nn2)c1 (single isomer, unassigned) [Example 4.5, 4-[4-(3-methyl-5-{[4-(trifluoromethyl)pyrimidin-2-yl]amino}phenyl)-1H-1,2,3-triazol-1-yl]tetrahydrofuran-3-ol] | 61.2
9 | Cc1cc(Nc2nccc(C(F)F)n2)cc(-c2cn(Cc3ccc(=O)[nH]c3)nn2)c1 [Example 33, 5-((4-(3-((4-(Difluoromethyl)pyrimidin-2-yl)amino)-5-methylphenyl)-1H-1,2,3-triazol-1-yl)methyl)pyridin-2(3H)-one] | 3.7
10 | Cc1cc(Nc2cc(C(F)(F)F)ccn2)nc(-c2cn(C(C)c3ccc(C(N)=O)cc3)nn2)c1 (centres unmarked) [Example 1.16, 4-{1-[4-(4-methyl-6-{[4-(trifluoromethyl)pyridin-2-yl]amino}pyridin-2-yl)-1H-1,2,3-triazol-1-yl]ethyl}benzamide] | 13.3
11 | Cc1cc(Nc2nccc(C(F)(F)F)n2)cc(-c2cn(C3COCC3O)nn2)c1 (single isomer, unassigned) [Example 4.8, 4-[4-(3-methyl-5-{[4-(trifluoromethyl)pyrimidin-2-yl]amino}phenyl)-1H-1,2,3-triazol-1-yl]tetrahydrofuran-3-ol] | 35.1
12 | Cc1cc(Nc2nccc(C(F)F)n2)cc(-c2cn(C3CCCCC3O)nn2)c1 (centres unmarked) [Example 4.34] | 4.1
13 | Cc1cc(Nc2cc(C(F)(F)F)ccn2)nc(-c2cn(CC(O)C(C)(C)C)nn2)c1 (centres unmarked) [Example 4.25, 3,3-dimethyl-1-[4-(4-methyl-6-{[4-(trifluoromethyl)pyridin-2-yl]amino}pyridin-2-yl)-1H-1,2,3-triazol-1-yl]butan-2-ol] | 12.1
14 | Cc1cc(Nc2cc(C(F)(F)F)ccn2)nc(-c2cn(CC(O)C(C)C)nn2)c1 (centres unmarked) [Example 4.24, 3-methyl-1-[4-(4-methyl-6-{[4-(trifluoromethyl)pyridin-2-yl]amino}pyridin-2-yl)-1H-1,2,3-triazol-1-yl]butan-2-ol] | 8.3
15 | Cc1cc(Nc2cc(C(F)(F)F)ccn2)nc(-c2cn(C(C)C(=O)NC(C)c3cnn(-c4ccccc4F)c3)nn2)c1 (centres unmarked) [Example 1.35, N-{1-[1-(2-fluorophenyl)-1H-pyrazol-4-yl]ethyl}-2-[4-(4-methyl-6-{[4-(trifluoromethyl)pyridin-2-yl]amino}pyridin-2-yl)-1H-1,2,3-triazol-1-yl]propanamide] | 171
16 | Cc1cc(Nc2cc(C(F)(F)F)ccn2)nc(-c2cn(C(C)C(=O)NCCc3ccccc3Oc3ccccc3)nn2)c1 (centres unmarked) [Example 1.42, 2-[4-(4-methyl-6-{[4-(trifluoromethyl)pyridin-2-yl]amino}pyridin-2-yl)-1H-1,2,3-triazol-1-yl]-N-[2-(2-phenoxyphenyl)ethyl]propanamide] | 912

The remaining lines, values ahead:

Row | IC50 [nM] | Compound
17 | 29.3 | Cc1cc(Nc2nccc(C(F)(F)F)n2)cc(-c2cn(CC(C)(O)C(C)(C)O)nn2)c1 (centres unmarked) [Example 21.19, 2,3-dimethyl-1-[4-(3-methyl-5-{[4-(trifluoromethyl)pyrimidin-2-yl]amino}phenyl)-1H-1,2,3-triazol-1-yl]butane-2,3-diol]
18 | 12.7 | Cc1cc(Nc2nccc(C3CC3)n2)cc(-c2cn(CC(C)(O)C(C)(C)O)nn2)c1 (centres unmarked) [Example 21.26, 1-(4-{3-[(4-cyclopropylpyrimidin-2-yl)amino]-5-methylphenyl}-1H-1,2,3-triazol-1-yl)-2,3-dimethylbutane-2,3-diol]
19 | 63.5 | Cc1cc(Nc2cc(C(F)(F)F)ccn2)nc(-c2cn(CC3CCCCO3)nn2)c1 (racemic) [Example 5.4, 4-methyl-6-[1-(tetrahydro-2H-pyran-2-ylmethyl)-1H-1,2,3-triazol-4-yl]-N-[4-(trifluoromethyl)pyridin-2-yl]pyridin-2-amine]
20 | 9.1 | Cc1cc(Nc2cc(C(F)(F)F)ccn2)nc(-c2cn(CC(C)(O)CO)nn2)c1 (centres unmarked) [Example 10.14, 2-methyl-3-[4-(4-methyl-6-{[4-(trifluoromethyl)pyridin-2-yl]amino}pyridin-2-yl)-1H-1,2,3-triazol-1-yl]propane-1,2-diol]
21 | 430 | COC(=O)C1CCC(n2cc(-c3cc(C)cc(Nc4nccc(C(F)(F)F)n4)c3)nn2)CC1 (mixture of isomers) [Example 5.99, methyl 4-[4-(3-methyl-5-{[4-(trifluoromethyl)pyrimidin-2-yl]amino}phenyl)-1H-1,2,3-triazol-1-yl]cyclohexane-carboxylate]
22 | 66.3 | COc1nc(Nc2cc(C)cc(-c3cn(CC(C)(O)C(C)(C)O)nn3)c2)ncc1F (centres unmarked) [Example 21.33, 1-(4-{3-[(5-fluoro-4-methoxypyrimidin-2-yl)amino]-5-methylphenyl}-1H-1,2,3-triazol-1-yl)-2,3-dimethylbutane-2,3-diol]
23 | 41.4 | Cc1cc(Nc2nccc(C(F)(F)F)n2)cc(-c2cn(C(C)C(=O)O)nn2)c1 (racemic) [Example 5.64, 2-[4-(3-methyl-5-{[4-(trifluoromethyl)pyrimidin-2-yl]amino}phenyl)-1H-1,2,3-triazol-1-yl]propanoic acid]
24 | 389 | Cc1cc(Nc2cc(C(F)(F)F)ccn2)nc(-c2nncn2C)c1 [Example 16.3, 4-methyl-6-(4-methyl-4H-1,2,4-triazol-3-yl)-N-[4-(trifluoromethyl)pyridin-2-yl]pyridin-2-amine]
25 | 23.6 | Cc1cc(Nc2cc(C(F)(F)F)ccn2)nc(-c2cn(C3CN(C(=O)C(C)O)CC3O)nn2)c1 (single isomer, unassigned) [Example 13.2, 1-[2-hydroxypropanoyl]-4-[4-(4-methyl-6-{[4-(trifluoromethyl)pyridin-2-yl]amino}pyridin-2-yl)-1H-1,2,3-triazol-1-yl]pyrrolidin-3-ol]
26 | 76.5 | CCOC(=O)C(CC)n1cc(-c2cc(C)cc(Nc3cc(C(F)(F)F)ccn3)n2)nn1 (racemic) [Example 5.28, ethyl 2-[4-(4-methyl-6-{[4-(trifluoromethyl)pyridin-2-yl]amino}pyridin-2-yl)-1H-1,2,3-triazol-1-yl]butanoate]
27 | 2.1 | Cc1cc(Nc2cc(C(F)(F)F)ccn2)nc(-c2cn(CCc3cn[nH]c3)nn2)c1 [Example 5.105, 4-methyl-6-{1-[2-(1H-pyrazol-4-yl)ethyl]-1H-1,2,3-triazol-4-yl}-N-[4-(trifluoromethyl)pyridin-2-yl]pyridin-2-amine]
28 | 3.3 | Cc1cc(Nc2cc(C(F)F)ccn2)nc(-c2cn(CC3CNCCO3)nn2)c1 (single isomer, unassigned) [Example 26.2, N-(4-(difluoromethyl)pyridin-2-yl)-4-methyl-6-(1-(morpholin-2-ylmethyl)-1H-1,2,3-triazol-4-yl)pyridin-2-amine]
29 | 2 | Cc1cc(Nc2cc(C(F)F)ccn2)nc(-c2cn(CC3CNC(=O)O3)nn2)c1 (single isomer, unassigned) [Example 7.13, 5-((4-(6-((4-(difluoromethyl)pyridin-2-yl)amino)-4-methylpyridin-2-yl)-1H-1,2,3-triazol-1-yl)methyl)oxazolidin-2-one]
